# Source: ChEMBL document CHEMBL1126387, “Use of transferred nuclear overhauser effects to determine the conformation of 1-(3,4-dichlorophenyl)-2-aminopropane when bound to the active site of phenylethanolamine N-methyltransferace (PNMT)” (Bioorg Med Chem Lett, 1992)
# Target: T1, Phenylethanolamine N-methyltransferase (Bos taurus, UniProt P10938)
# T1 sequence (P10938 whole entry): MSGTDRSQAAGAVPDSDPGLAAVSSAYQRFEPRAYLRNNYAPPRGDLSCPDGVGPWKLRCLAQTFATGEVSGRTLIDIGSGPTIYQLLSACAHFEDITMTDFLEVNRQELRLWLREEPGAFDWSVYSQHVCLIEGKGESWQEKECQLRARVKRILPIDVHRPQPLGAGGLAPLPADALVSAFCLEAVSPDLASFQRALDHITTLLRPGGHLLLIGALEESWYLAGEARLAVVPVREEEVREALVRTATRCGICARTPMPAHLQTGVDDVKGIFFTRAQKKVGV
# Experiment: Inhibitory activity against bovine adrenal phenylethanolamine N-methyltransferase(PNMT)
smiles,measurement,value
CC(N)Cc1ccc(Cl)c(Cl)c1 (stereo unspecified),Ki,6.7 µM
